PMC6895199, “A new antiviral scaffold for human norovirus identified with computer-aided approaches on the viral polymerase” (Scientific Reports, 2019)

Assays:
HuNoV (GII.4) RdRp = HuNoV (GII.4) RdRp (Norovirus Hu/GII.4/Sydney/NSW0514/2012/AU, UniProt K4L8Z7); experiment: Quantitative fluorescent RdRp activity assay (PicoGreen, poly(C) template); format: biochemical, human norovirus Sydney 2012; conditions: for IC50: HuNoV (GII.4) RdRp activity, six concentrations 0.1–100 µM, mean ± SD; for inhibition at 20 µM: read-out: inhibition of HuNoV RdRp activity at fixed concentration
Protocol: The newly synthesised compounds, including the carboxylate ester derivatives 34–35 and 7 from the Core Hopping approach, were evaluated for their enzymatic inhibition of human norovirus Sydney 2012 (HuNoV (GII.4)) RdRp activity in vitro, using a quantitative fluorescent assay. Compounds were tested at six different concentrations (concentration range examined: 0.1–100 µM) and compared to the relative activity of mock treated samples containing the vehicle only (0.5% DMSO [vol/vol]). PPNDS [Pyridoxal-5′-phosphate-6-(2′-naphthylazo-6′-nitro-4′,8′-disulfonate) tetrasodium salt], a previously reported potent inhibitor of NoV RdRp activity, and 1 were used as positive controls. Dose-dependent inhibitory response curves were used to establish IC50 values for the eight test compounds, as reported in Table 1 (see also Supplementary Fig. S1).
The newly prepared compounds 48–60 were initially evaluated against norovirus Sydney 2012 RdRp activity in vitro using a quantitative fluorescent assay. Compounds were tested at a fixed concentration of 20 µM and compared to the relative activity of mock treated samples. PPNDS and 1 were used as positive controls. […] These two rings are structural features present in 1 and in one of its derivatives we have previously reported. […] From these observations, the thiophene ring appears not to influence inhibitory activity. Derivatives in which the central core of 48 has been used to link the two terminal hydrophobic rings of 1 or of its derivatives we have previously reported[25] (55, 57, 58) appear to retain the RdRp inhibitory activity found for 48 (~20% at 20 µM). A similar effect is obtained when a sulfonyl group, as in our hit 1, is used to link ring 2, regardless if it is a thiazole (59) or an unsubstituted phenyl ring (60), to the rest of the molecule. […] Overall, even if showing a reduced biochemical activity in comparison with 1, some of the new derivatives can be considered as modest HuNoV RdRp inhibitors at 20 µM.
Fluorescent RdRp activity assays were carried out as previously described[12],[29]. Briefly, RdRp activity was quantified by monitoring the formation of double-stranded RNA (dsRNA) from a single stranded homopolymeric template, poly(C) (Sigma Aldrich), using the fluorescent dye PicoGreen (Life Technologies, Carlsbad, CA, USA). RdRp assays were performed in 384-well plates, and each reaction mixture contained 400 ng enzyme, 45 μM GTP, 10 ng/μL poly(C) RNA, 2.5 mM MnCl2, 5 mM dithiothreitol, (DTT), 0.01% bovine serum albumin (BSA), and 0.005% Tween 20 in 20 mM Tris-HCl, pH 7.5, with a final reaction volume of 25 μL. The PPNDS and compound 1 were used as a positive controls. RdRps were incubated for 10 mins at 30 °C in the presence of the test compounds or the compound vehicle DMSO (0.5% vol/vol) before addition into the reaction mixture, which was then allowed to run 15 min at 30 °C then terminated with 10 mM EDTA, followed by PicoGreen staining and dsRNA quantitation. GraphPad Prism V6.05 (La Jolla, CA, USA) was used to plot the IC50 values. A secondary gel-based polymerase activity assay was used as a counter-screen as described below, to exclude the possibility of RdRp activity enhancement. Primed elongation activity was examined in a gel-based assay as previously described[12],[29] using the RNA template (PE44-NoV). Gels were imaged using BioRad (Hercules, CA, U.SA) Geldoc Universal Hood II, running BioRad Image Lab software, V4.1, build 16.

[1] = Cytotoxicity by the MTS method on uninfected cells; format: cell-based; conditions: mouse, uninfected RAW 264.7 cells
Protocol: Cytotoxicity: The cytotoxicity of the Compounds was evaluated by the MTS method, by exposing uninfected cells to the same concentrations of compounds for 3 days. The %cell viability was calculated as (ODtreated/ODCC) × 100, where ODCC is the OD of uninfected untreated cells and ODtreated are uninfected cells treated with compound. The CC50 was defined as the compound concentration that reduces the number of viable cells by 50%[34].

MNV = MNV CPE reduction assay (MTS) in RAW 264.7 cells; format: cell-based, mouse norovirus (MNV-1.CW1); conditions: Norovirus, RAW264.7, in Mus musculus
Protocol: The newly prepared compounds 2–7 and 34–35 were evaluated for their antiviral effect against the genogroup V mouse norovirus (MNV) using the mouse macrophage cell line RAW264.7. This assay evaluates the ability of the compounds to protect infected cells from the virus-induced cytopathic effect, thus being suitable to identify inhibition of virus replication at every step of the virus life cycle, and representing a robust cellular assay available for the rapid evaluation of potential norovirus inhibitors. Compounds identified using MNV have shown effects against HuNoV in vitro and in vivo, as in the case of nucleoside RdRp inhibitor 2′-C-methylcytidine (2CMC)[34]–[36]. Unfortunately, despite not presenting the aqueous solubility issues we had previously encountered for 1[29], no significant antiviral effect could be observed in this assay for the new compounds up to the maximum concentration tested. The new structural modifications, despite retaining inhibition of the RdRp in an isolated enzyme activity assay and showing no cytotoxic effects at the test concentrations in the MNV antiviral assay (Supplementary Table S1), are correlated with a lack of antiviral activity. As these new structures present the same limitation of most non-nucleoside HuNoV polymerase inhibitors reported so far[22], we were prompted to apply a different computer-aided strategy to further modify the scaffold of 1, with the aim to achieve an antiviral effect in cellular systems. […]
Since the main scope of this work was to find new norovirus inhibitors which show antiviral effects against both the HuNoV RdRp and in norovirus-infected cells, priority was given to the evaluation of most of the new molecules for their antiviral activity against MNV in infected RAW cells. The nucleoside 2′-C-methylcytidine was used as positive control. The test compounds were evaluated at eight different concentrations (range 0.6–100 µM) and their ability to reduce the virus-induced cytopathic effect was assessed.
Cells and virus: MNV (virus strain MNV-1.CW1) was propagated in RAW 264.7 cells grown in DMEM (Life Technologies, Gent, Belgium) supplemented with 10% or 2% FBS, 2 mM L-glutamine, 20 mM HEPES, 0.075 g/L sodium bicarbonate, 1 mM sodium pyruvate, 100 U penicillin/mL and 100 µg/mL streptomycin at 37 °C in a humidified atmosphere of 5% CO2. The human norovirus GI.1 replicon harboring gastric tumor-1 cell line (HGT-NV) (kindly provided by Dr. Ian Goodfellow, University of Cambridge) was maintained in DMEM supplemented with 10% FBS, 2mM L-glutamine, 0.075 g/L sodium bicarbonate and 1.0 mg/ml of Geneticin (G418; Life Technologies), at 37 °C in a humidified atmosphere of 5% CO2[34].
Antiviral assay with MNV: The antiviral activity of the Compounds was determined using an MTS [3-(4,5-dimethylthiazol-2-yl)-5-(3-carboxymethoxyphenyl)-2-(4-sulfophenyl)-2H-tetrazolium]-based cytopathic effect (CPE) reduction assay. […] Then, a MTS-phenazinemethosulfate (MTS/PMS) stock solution [(2 mg/mL MTS (Promega, Leiden, The Netherlands) and 46 µg/mL PMS (Sigma–Aldrich, Bornem, Belgium) in PBS at pH 6–6.5)] was diluted 1/20 in MEM (Life Technologies, Gent, Belgium) and 75 µL were added to each well. After 2 h, the optical density (OD) was read at 498 nm. The %CPE reduction was calculated as [(ODtreated)MNV − ODVC]/[ODCC − ODVC] × 100, where ODCC represents the OD of the uninfected untreated cells, whereas ODVC and (ODtreated)MNV represent the OD of infected untreated cells and virus-infected cells treated with a compound concentration, respectively. The 50% effective concentration (EC50) was defined as the compound concentration that protected 50% of the cells from virus-induced CPE[34].

[2] = Supplementary Table S1, at least two independent experiments
[3] = Table 2, at least three independent experiments
[4] = Table 2, RAW 264.7, range 0.6–100 µM, at least three independent experiments

Row | SMILES | IC50 (HuNoV (GII.4) RdRp) | CC50 at 3 days [1, 2] | EC50 (MNV; [2]) | inhibition at 20 µM (HuNoV (GII.4) RdRp) | further results
1 | O=C1NN(c2ccc(C(=O)O)cc2)C(=O)/C1=C/c1ccc(-c2ccc(S(=O)(=O)Nc3ccccc3)cc2)o1 [Compound 2, (E)-4-(3,5-dioxo-4-((5-(4-(N-phenylsulfamoyl)phenyl)furan-2-yl)methylene)pyrazolidin-1-yl)benzoic acid] | 17.2 ± 2.4 µM | > 100 µM | > 100 µM | – | –
2 | C[C@@]1(O)[C@H](O)[C@@H](CO)O[C@H]1n1ccc(N)nc1=O [Compound 2CMC, 2′-C-methylcytidine, reference compound] | – | – | – | – | CC50 at 3 days [1, 3]: 16 ± 2 µM; EC50 (MNV; [4]): 2 ± 1 µM
3 | O=C1NN(c2cccc(C(=O)O)c2)C(=O)/C1=C/c1ccc(-c2ccc(S(=O)(=O)Nc3ccccc3)cc2)o1 [Compound 3, (E)-3-(3,5-dioxo-4-((5-(4-(N-phenylsulfamoyl)phenyl)furan-2-yl)methylene)pyrazolidin-1-yl)benzoic acid] | 22.5 ± 6.5 µM | > 100 µM | > 100 µM | – | –
4 | O=C1NN(c2ccccc2)C(=O)/C1=C/c1ccc(-c2ccc(S(=O)(=O)Nc3ncccn3)cc2)o1 [Compound 4, (E)-4-(5-((3,5-dioxo-1-phenylpyrazolidin-4-ylidene)methyl)furan-2-yl)-N-(pyrimidin-2-yl)benzenesulfonamide] | – | 60 ± 21 µM | > 50 µM | – | inhibition at 100 µM (HuNoV (GII.4) RdRp; 100 µM, read-out: inhibition of RdRp activity at the maximum concentration tested): 15%
5 | O=C1NN(c2ccccc2)C(=O)/C1=C/c1ccc(-c2ccc(S(=O)(=O)Nc3ncco3)cc2)o1 [Compound 5, (E)-4-(5-((3,5-dioxo-1-phenylpyrazolidin-4-ylidene)methyl)furan-2-yl)-N-(oxazol-2-yl)benzenesulfonamide] | 12.8 ± 2.6 µM | > 100 µM | > 100 µM | – | –
6 | O=C1NN(c2ccccc2)C(=O)/C1=C/c1ccc(-c2ccc(S(=O)(=O)Nc3nc4ccccc4[nH]3)cc2)o1 [Compound 6, (E)-N-(1H-benzo[d]imidazol-2-yl)-4-(5-((3,5-dioxo-1-phenylpyrazolidin-4-ylidene)methyl)furan-2-yl)benzenesulfonamide] | 26.7 ± 2 µM | > 100 µM | 89 ± 2 µM | – | –
7 | CCOC(=O)c1cccc(N2NC(=O)/C(=C\c3ccc(-c4ccc(S(=O)(=O)Nc5ccccc5)cc4)o3)C2=O)c1 [Compound 35, Ethyl(E)-3-(3,5-dioxo-4-((5-(4-(N-phenylsulfamoyl)phenyl)furan-2-yl)methylene)pyrazolidin-1-yl)benzoate] | 18.9 ± 3.1 µM | > 100 µM | > 100 µM | – | –
8 | O=C(NC(=S)Nc1ccc(N2CCN(C(=O)c3cccs3)CC2)cc1)c1cc2ccccc2s1 [Compound 49, N-((4-(4-(Thiophene-2-carbonyl)piperazin-1-yl)phenyl)carbamothioyl)benzo[b]thiophene-2-carboxamide] | – | – | – | 15 to 20% | CC50 at 3 days [1, 3]: > 100 µM; EC50 (MNV; [4]): > 100 µM
9 | O=C(NC(=S)Nc1ccc(N2CCN(C(=O)c3cccs3)CC2)cc1)c1sc2ccccc2c1C(F)(F)F [Compound 50, N-((4-(4-(Thiophene-2-carbonyl)piperazin-1-yl)phenyl)carbamothioyl)-3-(trifluoromethyl)benzo[b] thiophene-2-carboxamide] | – | – | – | 15 to 20% | –
10 | O=C(NC(=S)Nc1ccc(N2CCN(C(=O)c3cccs3)CC2)cc1)c1ccccc1 [Compound 51, N-((4-(4-(Thiophene-2-carbonyl)piperazin-1-yl)phenyl)carbamothioyl)benzamide] | – | – | – | ~15% | –
11 | O=C(NC(=S)Nc1ccc(N2CCN(C(=O)c3ccccc3)CC2)cc1)c1sc2ccccc2c1Cl [Compound 54, N-((4-(4-Benzoylpiperazin-1-yl)phenyl)carbamothioyl)-3-chlorobenzo[b]thiophene-2-carboxamide] | – | – | – | ≤ 60% | CC50 at 3 days [1, 3]: 4.5 ± 0.7 µM; EC50 (MNV; [4]): > 100 µM
12 | O=C(NC(=S)Nc1ccc(N2CCN(C(=O)c3ccccc3)CC2)cc1)c1ccccc1 [Compound 55, N-((4-(4-Benzoylpiperazin-1-yl)phenyl)carbamothioyl)benzamide] | – | – | – | ~20% | CC50 at 3 days [1, 3]: 61.9 µM; EC50 (MNV; [4]): > 100 µM
13 | O=C(NC(=S)Nc1ccc(N2CCN(C(=O)c3nccs3)CC2)cc1)c1ccccc1 [Compound 58, N-((4-(4-(Thiazole-2-carbonyl)piperazin-1-yl)phenyl)carbamothioyl)benzamide] | – | – | – | ~20% | –
14 | O=C(Nc1ccc(N2CCN(C(=O)c3cccs3)CC2)cc1)c1ccccc1 [Compound 73, N-(4-(4-(thiophene-2-carbonyl)piperazin-1-yl)phenyl)benzamide] | – | – | – | ~40% | –
